# From patent US20100196273A1, “NOVEL AGENT FOR IN VIVO PET IMAGING OF TUMOR PROLIFERATION” (Board of Regents, University of Texas System, priority 2007, published 2010)
# Key:
# hepatitis B virus (HBV) = details: reported, Liu et al. 1998; cited from earlier work
# [1] = test system: human immunodeficiency virus; details: reported, Liu et al. 1998; cited from earlier work
# [2] = reported, Liu et al. 1998; cited from earlier work
# Epstein-Barr virus = details: reported, Liu et al. 1998; cited from earlier work
# [3] = test system: H441 (rapidly growing) human NSCLC tumor xenografts; assay: microPET imaging of tumor proliferative activity, H441 NSCLC xenografts; format: in vivo, nude mice; details: 3.7 MBq via tail vein, 2 h post-injection
# Protocol: (§1) All radiotracers were synthesized following literature methods. Two human NSCLC cell lines, H441 (rapidly growing) and H3255 (slow growing) were used to grow (s.c.) tumor xenografts in nude mice. Eight nu/nu mice were injected with 3×10^6 cells (H3255) onto right shoulder, and 3 weeks later, 3×10^6 cells (H441) were injected onto opposite shoulder. When tumors grew approximately 1 cm in diameter, PET imaging with [^18F]-FLT, [^18F]-D-FMAU [^18F]-L-FMAU were performed on three consecutive days. Each animal received 3.7 MBq of radiotracer via the tail vein, then dynamic scan was performed using micro-PET up to 2 hours of post-injection.
# (§2) Tumor uptake and tumor-to-muscle (T/M) ratios of [^18F]-FLT, [^18F]-D-FMAU and [^18F]L-FMAU for different tumors are summarized in Table 1. […] On the other hand, tumor-to muscle ratio of [^18F]-FLT accumulation was higher than that for [^18F]-D-FMAU and [^18F]-L-FMAU.
# [4] = test system: Colo205 human colon cancer tumor xenografts; assay: micro-PET imaging of tumor proliferative activity, Colo205 colon cancer xenografts; format: in vivo, nude mice; details: 3.7 MBq via tail vein, 2 h post-injection
# Protocol: The radiotracers, [^18F]-FLT, [^18F]-D-FMAU and [^18F]-L-FMAU, were synthesized according literature methods in high specific activity. Human colon cancer cells, Colo205 were used to grow tumor xenografts in nude mice. Four nu/nu mice were injected (s.c.) with 3×10^6 cells onto the shoulder. When tumors were approximately 1 cm in diameter, PET imaging with [^18F]-FLT, [^18F]-D-FMAU [^18F]-L-FMAU were performed on three consecutive days using one tracer at a time. Each animal received 3.7 MBq of radiotracer via the tail vein, then dynamic imaging was performed using micro-PET up to 2 hours of post-injection.
# However, tumor-to muscle ratio of [^18F]-FLT accumulation was lower than that of [^18F]-D-FMAU and [^18F]-L-FMAU. [^18F]-L-FMAU had higher uptake and tumor/muscle ratio compared to the D-[^18F]-FMAU, which is probably due to higher resistance to metabolic degradation.
# [5] = test system: H3255 (slow growing) human NSCLC tumor xenografts; assay: microPET imaging of tumor proliferative activity, H3255 NSCLC xenografts; format: in vivo, nude mice; details: 3.7 MBq via tail vein, 2 h post-injection
# Protocol: as §1, §2
smiles,measurement,setting,value
"Cc1cn([C@H]2O[C@@H](CO)[C@H](O)[C@H]2F)c(=O)[nH]c1=O [L-FMAU, 2′-Deoxy-2′-fluoro-5-methyl-1-β-L-arabinofuranosyl-uracil]",antiviral activity against hepatitis B virus,hepatitis B virus (HBV),potential antiviral activities
same,antiviral activity against human immunodeficiency virus,[1],not human immunodeficiency virus
same,cytotoxicity,[2],low cytotoxicity
same,antiviral activity against Epstein-Barr virus,Epstein-Barr virus,potential antiviral activities
Cc1cn([C@@H]2O[C@H](CO)[C@@H](O)[C@@H]2[18F])c(=O)[nH]c1=O [[^18F]-D-FMAU],Tumor uptake % ID/g,[3],7.74 ± 1.39 % ID/g
same,tumor-to-muscle (T/M) ratio,[3],3.37 ± 1.19
same,Tumor uptake % ID/g,[4],2.37 ± 0.58 % ID/g
same,tumor-to-muscle (T/M) ratio,[4],1.95 ± 0.37
same,Tumor uptake % ID/g,[5],4.49 ± 1.08 % ID/g
same,tumor-to-muscle (T/M) ratio,[5],1.96 ± 0.74
"Cc1cn([C@H]2C[C@H]([18F])[C@@H](CO)O2)c(=O)[nH]c1=O [[^18F]-FLT, [^18F]-3′-deoxy-3′-fluorothymidine]",Tumor uptake % ID/g,[3],5.10 ± 1.45 % ID/g
same,tumor-to-muscle (T/M) ratio,[3],12.94 ± 4.38
same,Tumor uptake % ID/g,[4],5.20 ± 1.32 % ID/g
same,tumor-to-muscle (T/M) ratio,[4],1.51 ± 0.61
same,Tumor uptake % ID/g,[5],0.57 ± 0.33 % ID/g
same,tumor-to-muscle (T/M) ratio,[5],1.50 ± 0.90
"Cc1cn([C@H]2O[C@@H](CO)[C@H](O)[C@H]2[18F])c(=O)[nH]c1=O [[^18F]-L-FMAU, 2′ deoxy-2′-[^18F]-fluoro-5-methyl-1-β-L-arabinofuranosyluracil]",Tumor uptake % ID/g,[3],3.13 ± 1.11 % ID/g
same,tumor-to-muscle (T/M) ratio,[3],4.15 ± 1.82
same,Tumor uptake % ID/g,[4],2.93 ± 0.75 % ID/g
same,tumor-to-muscle (T/M) ratio,[4],2.85 ± 0.89
same,Tumor uptake % ID/g,[5],1.38 ± 0.81 % ID/g
same,tumor-to-muscle (T/M) ratio,[5],1.62 ± 0.50
